Key:
[1] = test system: Mycosphaerella arachidis (Cercospora arachidicola); test: Mycosphaerella arachidis (Cercospora arachidicola) / liquid culture (early leaf spot); assay type: cell-based; details: growth inhibition photometrically 4-5 days after application, read-out: control of Mycosphaerella arachidis
Summary of the method: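 Spores taken straight from cryostorage are suspended in potato dextrose broth and added to test compound in DMSO. Plates are incubated at 24° C. Growth inhibition is scored photometrically 4-5 days after application.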

[2] = test system: Glomerella lagenarium (Colletotrichum lagenarium); test: Glomerella lagenarium (Colletotrichum lagenarium) / liquid culture (anthracnose); assay type: cell-based; details: Colletotrichum orbiculare, growth inhibition photometrically 3-4 days after application, read-out: control of Glomerella lagenarium
Summary of the method: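 Cryo-stored conidia in potato dextrose broth were added to test compound in DMSO. Plates were incubated at 24° C, and growth inhibition was read photometrically 3-4 days after application.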

[3] = test system: Monographella nivalis (Microdochium nivale); test: Monographella nivalis (Microdochium nivale) / liquid culture (foot rot cereals); assay type: cell-based; details: growth inhibition photometrically 4-5 days after application, read-out: control of Monographella nivalis
Summary of the method: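 Fungal conidia mixed directly into potato dextrose broth and added to test compound delivered in DMSO. Incubated at 24° C; growth inhibition read photometrically 4-5 days after application.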

[4] = test system: Fusarium culmorum; test: whole plant or invertebrate; assay type: in vivo; details: in Triticum aestivum, read-out: control of Fusarium culmorum
[5] = test system: Botryotinia fuckeliana (Botrytis cinerea); test: Botryotinia fuckeliana (Botrytis cinerea) / liquid culture (gray mould); assay type: cell-based; details: growth inhibition photometrically 3-4 days after application, read-out: control of Botryotinia fuckeliana
Summary of the method: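 Conidia suspended in Vogels broth and added to compound dispensed from DMSO. Incubated at 24°C, with growth inhibition measured photometrically 3–4 days later.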

[6] = test system: Fusarium culmorum; test: microbe, parasite or virus in culture; assay type: cell-based; details: read-out: control of Fusarium culmorum
[7] = test system: Mycosphaerella graminicola (Septoria tritici); test: Mycosphaerella graminicola (Septoria tritici) / liquid culture (Septoria blotch); assay type: cell-based; details: Zymoseptoria tritici, growth inhibition photometrically 4-5 days after application, read-out: control of Mycosphaerella graminicola
Summary of the method: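 Conidia suspended in potato dextrose broth and added to test compound supplied in DMSO in 96-well plates. Incubated at 24 °C, and growth inhibition read photometrically 4-5 days after application.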

[8] = test system: Gibberella zeae (Fusarium graminearum); test: whole plant or invertebrate; assay type: in vivo; details: in Triticum aestivum, read-out: control of Gibberella zeae
[9] = test system: Magnaporthe grisea (Pyricularia Oryzae); test: whole plant or invertebrate; assay type: in vivo; details: foliar, read-out: control of Magnaporthe grisea
[10] = test system: Alternaria solani; test: Alternaria solani / tomato / leaf disc (early blight); assay type: in vivo; details: foliar, tomato leaf disks, sprayed 2 days before inoculation, compared to untreated control
Description: Example B1: Alternaria solani/Tomato/Leaf Disc (Early Blight) Tomato leaf disks cv. Baby are placed on agar in multiwell plates (24-well format) and sprayed with the formulated test compound diluted in water. The leaf disks are inoculated with a spore suspension of the fungus 2 days after application. The inoculated leaf disks are incubated at 23° C./21° C.

[11] = test system: Phaeosphaeria nodorum (Septoria nodorum); test: Phaeosphaeria nodorum (Septoria nodorum) / wheat / leaf disc preventative (glume blotch); assay type: in vivo; details: Parastagonospora nodorum, foliar, wheat leaf segments, inoculated 2 days after application
Summary of the method: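 Wheat cv. Kanzler leaf segments on agar sprayed preventatively with formulated compound diluted in water, then inoculated with spore suspension 2 days after application. Incubated at 20° C, 75% rh, 12 h light/12 h dark; percent disease control versus untreated scored 5-7 days after application.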

[12] = test system: Blumeria graminis f. sp. tritici (Erysiphe graminis f. sp. tritici); test: Blumeria graminis f. sp. tritici / wheat / leaf disc preventative (powdery mildew on wheat); assay type: in vivo; details: foliar, wheat leaf segments, inoculated 1 day after application
Summary of the method: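 Wheat cv. Kanzler leaf segments on agar sprayed with formulated compound in water, inoculated 1 day later by shaking mildew-infected plants overhead. Incubated at 20° C, 60% rh, 24 h dark then 12 h light/12 h dark. Percent disease control versus untreated scored 6-8 days after application.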

[13] = test system: Pyrenophora teres; test: Pyrenophora teres / barley / leaf disc preventative (net blotch); assay type: in vivo; details: foliar, barley leaf segments, inoculated 2 days after application
Summary of the method: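 Barley cv. Hasso leaf segments on agar sprayed with formulated compound, inoculated with spores 2 days later. Incubated at 20 °C, 65% rh, 12 h light/dark; disease control versus untreated assessed 5–7 days after application.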

[14] = test system: Sclerotinia sclerotiorum; test: Sclerotinia sclerotiorum / liquid culture (cottony rot); assay type: cell-based; details: growth inhibition photometrically 3-4 days after application, read-out: control of Sclerotinia sclerotiorum
Description: Example B15: Sclerotinia sclerotiorum/Liquid Culture (Cottony Rot) Mycelia fragments of a newly grown liquid culture of the fungus are directly mixed into nutrient broth (PDB potato dextrose broth). After placing a (DMSO) solution of test compound into a microtiter plate (96-well format) the nutrient broth containing the fungal material is added. The test plates are incubated at 24° C. and the inhibition of growth is determined photometrically 3-4 days after application.

Row | SMILES | inhibition of growth at 20 ppm [1] | inhibition of growth at 20 ppm [2] | inhibition of growth at 20 ppm [3] | pest or weed control at 200 ppm [4] | inhibition of growth at 20 ppm [5] | inhibition of growth at 20 ppm [6] | inhibition of growth at 20 ppm [7] | pest or weed control at 200 ppm [8] | pest or weed control at 200 ppm [9] | pest or weed control at 200 ppm [10] | pest or weed control at 200 ppm [11] | pest or weed control at 200 ppm [12] | pest or weed control at 200 ppm [13] | inhibition of growth at 20 ppm [14] | melting point
1 | COc1cc(Cl)nc([C@@](C)(CNC(=O)c2cc(-c3ccc(F)cc3F)no2)c2cnn(C)c2)c1 [Compound P-46, N-[(2R)-2-(6-chloro-4-methoxy-2-pyridyl)-2-(1-methylpyrazol-4-yl)propyl]-3-(2,4-difluorophenyl) isoxazole-5-carboxamide] | ≥ 80% | ≥ 80% | ≥ 80% | ≥ 80% | ≥ 80% | ≥ 80% | ≥ 80% | ≥ 80% |  |  |  |  |  |  | 
2 | CC(C)Nc1cccc(C(C)(CNC(=O)c2cc(-c3ccc(F)cc3F)on2)c2cnn(C)c2)n1 (centres unmarked) [Compound P-103, 5-(2,4-difluorophenyl)-N-[2-[6-(isopropylamino)-2-pyridyl]-2-(1-methylpyrazol-4-yl)propyl]isoxazole-3-carboxamide] |  |  | ≥ 80% |  |  |  | ≥ 80% |  | ≥ 80% |  |  |  |  |  | 
3 | Cc1cccc(C(C)(CNC(=O)c2cc(-c3ccc(F)cc3F)on2)c2cnn(C)c2Cl)n1 (centres unmarked) [Compound P-73, N-[2-(5-chloro-1-methyl-pyrazol-4-yl)-2-(6-methyl-2-pyridyl)propyl]-5-(2,4-difluorophenyl) isoxazole-3-carboxamide] | ≥ 80% | ≥ 80% | ≥ 80% | ≥ 80% | ≥ 80% | ≥ 80% | ≥ 80% | ≥ 80% |  | ≥ 80% | ≥ 80% | ≥ 80% | ≥ 80% | ≥ 80% | 
4 | Cn1cc(C(CNC(=O)c2cc(-c3ccc(F)cc3F)on2)c2cnccn2)cn1 (centres unmarked) [Compound P-8, 5-(2,4-difluorophenyl)-N-[2-(1-methylpyrazol-4-yl)-2-pyrazin-2-yl-ethyl]isoxazole-3-carboxamide] |  |  |  |  |  |  |  |  | ≥ 80% |  |  | ≥ 80% | ≥ 80% |  | 
5 | Cn1cc([C@@](C)(CNC(=O)c2nnc(-c3ccc(F)cc3F)s2)c2cccc(Cl)n2)cn1 [Compound P-34, N-[(2S)-2-(6-chloro-2-pyridyl)-2-(1-methylpyrazol-4-yl)propyl]-5-(2,4-difluorophenyl)-1,3,4-thiadiazole-2-carboxamide] | ≥ 80% | ≥ 80% | ≥ 80% | ≥ 80% | ≥ 80% | ≥ 80% | ≥ 80% |  |  | ≥ 80% | ≥ 80% | ≥ 80% | ≥ 80% | ≥ 80% | 
6 | COC(=O)c1cccc(C(C)(CNC(=O)c2cc(-c3ccc(F)cc3F)on2)c2cnn(C)c2)n1 (centres unmarked) [Compound P-39, methyl 6-[2-[5-(2,4-difluorophenyl)isoxazole-3-carbonyl]amino]-1-methyl-1-(1-methylpyrazol-4-yl)ethyl]pyridine-2-carboxylate] |  | ≥ 80% | ≥ 80% |  | ≥ 80% |  | ≥ 80% |  | ≥ 80% |  | ≥ 80% |  |  |  | 
7 | COc1cc(Cl)nc(C(C)(CNC(=O)c2cc(-c3ccc(F)cc3F)on2)c2cnn(C)c2)c1 (centres unmarked) [Compound P-36, N-[2-(6-chloro-4-methoxy-2-pyridyl)-2-(1-methylpyrazol-4-yl)propyl]-5-(2,4-difluorophenyl) isoxazole-3-carboxamide] | ≥ 80% | ≥ 80% | ≥ 80% | ≥ 80% | ≥ 80% | ≥ 80% | ≥ 80% | ≥ 80% |  |  |  | ≥ 80% | ≥ 80% |  | 157 to 159 °C
8 | Cn1cc(C(C)(CNC(=O)c2nnc(-c3ccc(F)cc3F)s2)c2cccc(Br)n2)cn1 (centres unmarked) [Compound P-5, N-[2-(6-bromo-2-pyridyl)-2-(1-methylpyrazol-4-yl)propyl]-5-(2,4-difluorophenyl)-1,3,4-thiadiazole-2-carboxamide] | ≥ 80% | ≥ 80% | ≥ 80% | ≥ 80% | ≥ 80% | ≥ 80% | ≥ 80% | ≥ 80% |  | ≥ 80% | ≥ 80% | ≥ 80% | ≥ 80% |  | 
9 | Cc1cccc(C(C)(CNC(=O)c2cc(-c3ccc(F)cc3F)on2)c2cnn(C)c2)n1 (centres unmarked) [Compound P-16, 5-(2,4-difluorophenyl)-N-[2-(1-methylpyrazol-4-yl)-2-(6-methyl-2-pyridyl)propyl] isoxazole-3-carboxamide] | ≥ 80% | ≥ 80% | ≥ 80% | ≥ 80% | ≥ 80% | ≥ 80% | ≥ 80% | ≥ 80% |  |  |  | ≥ 80% | ≥ 80% | ≥ 80% | 
10 | Cn1cc([C@](C)(CNC(=O)c2nnc(-c3ccc(F)cc3F)s2)c2cccc(Cl)n2)cn1 [Compound P-35, N-[(2R)-2-(6-chloro-2-pyridyl)-2-(1-methylpyrazol-4-yl)propyl]-5-(2,4-difluorophenyl)-1,3,4-thiadiazole-2-carboxamide] | ≥ 80% | ≥ 80% | ≥ 80% | ≥ 80% | ≥ 80% | ≥ 80% | ≥ 80% | ≥ 80% |  | ≥ 80% | ≥ 80% | ≥ 80% | ≥ 80% | ≥ 80% | 
11 | Cn1cc([C@@](C)(CNC(=O)c2cc(-c3ccc(F)cc3F)on2)c2cccc(Cl)n2)cn1 [Compound P-29, N-[(2S)-2-(6-chloro-2-pyridyl)-2-(1-methylpyrazol-4-yl)propyl]-5-(2,4-difluorophenyl) isoxazole-3-carboxamide] | ≥ 80% | ≥ 80% | ≥ 80% | ≥ 80% | ≥ 80% | ≥ 80% | ≥ 80% |  |  | ≥ 80% | ≥ 80% | ≥ 80% | ≥ 80% | ≥ 80% | 
